Experimental data: patent publication US12612380B2, “Non-lysosomal glucosylceramidase inhibitors and uses thereof” (ALECTOS THERAPEUTICS INC., priority 2019, dated 2026)

These molecules were tested against T1, GBA2 (Homo sapiens, UniProt Q9HCG7) (assay: Determination of IC50 values for inhibition of GBA2 in cell lysate). Settings: not given.
T1 sequence (Q9HCG7 1-927): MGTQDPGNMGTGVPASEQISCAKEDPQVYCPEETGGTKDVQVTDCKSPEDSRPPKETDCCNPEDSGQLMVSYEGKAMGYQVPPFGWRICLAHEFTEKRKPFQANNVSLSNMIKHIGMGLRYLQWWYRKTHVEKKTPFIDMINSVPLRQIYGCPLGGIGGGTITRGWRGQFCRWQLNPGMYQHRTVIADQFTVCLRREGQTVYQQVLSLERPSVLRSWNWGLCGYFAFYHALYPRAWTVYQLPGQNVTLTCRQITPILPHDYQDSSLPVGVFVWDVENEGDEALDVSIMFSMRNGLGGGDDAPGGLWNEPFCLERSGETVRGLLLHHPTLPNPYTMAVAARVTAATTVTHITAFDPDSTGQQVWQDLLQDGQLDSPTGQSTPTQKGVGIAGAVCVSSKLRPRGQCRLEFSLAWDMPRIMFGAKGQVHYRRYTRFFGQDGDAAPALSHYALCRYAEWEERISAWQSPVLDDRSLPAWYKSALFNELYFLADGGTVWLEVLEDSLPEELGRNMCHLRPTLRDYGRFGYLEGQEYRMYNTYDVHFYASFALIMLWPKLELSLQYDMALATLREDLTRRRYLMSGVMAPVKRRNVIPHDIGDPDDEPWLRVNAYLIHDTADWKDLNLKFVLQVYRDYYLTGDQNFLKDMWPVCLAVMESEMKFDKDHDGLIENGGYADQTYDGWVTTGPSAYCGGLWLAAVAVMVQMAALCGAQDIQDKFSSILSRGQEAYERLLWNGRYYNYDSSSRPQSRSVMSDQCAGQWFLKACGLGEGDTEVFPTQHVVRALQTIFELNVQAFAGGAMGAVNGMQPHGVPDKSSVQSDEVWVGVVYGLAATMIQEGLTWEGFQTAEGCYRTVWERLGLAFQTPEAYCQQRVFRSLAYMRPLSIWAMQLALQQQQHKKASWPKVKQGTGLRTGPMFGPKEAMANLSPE
Type: biochemical
Design: host or cells: HEK293T (lentiviral transduction, puromycin selection); used as cellular homogenate
Source text: Assay for Determination of IC50 Values for Inhibition of GBA2 in Cell Lysate
Stable GBA2-expressing HEK293T cells were generated as follows. The PCR-amplified human GBA2 (GBA2 nucleotide accession number BC011363) using the following primers: Sense 5′---CGCAAATGGGCGGTAGGCGTG (SEQ ID NO:2)---3′ and antisense 5′---TAGTCAGCCATGGGGCGGAGA (SEQ ID NO:3)---3′) was cloned into pLenti-GIII-CMV by ABM Inc. The correctness of the construct was verified by sequencing. Lentivirus particles containing GBA2 in the pLenti-GIII-CMV plasmid were prepared using a third Generation Virus Packaging Mix (ABM cat #LV053-G074) in HEK293T cells and supplied as a virus particle suspension. The virus suspension was used for infection of HEK293T cells. Cell populations stably expressing human GBA2 were selected using puromycin for several weeks as determined by activity assays and western blot.
Various concentrations of test compounds were prepared in DMSO and then diluted into buffer consisting of 100 mM citric acid, 200 mM disodium phosphate with 1% v/v C10E6, pH 5.5. Cellular homogenates (0.25 mg/mL) of the stable HEK293T-overexpressing GBA2 cell line were preincubated for 10 min on ice with an inhibitor of GCase (20 μM (6R,7R,8S)-8-ethyl-4-azaspiro[2.5]octane-6,7-diol). The reaction solution consisted of 20 μL of 750 μM 4-methylumbelliferone-β-D glucopyranoside in 5% DMSO in the same buffer, 20 μL of GBA2-cellular homogenate pre-treated with (6R,7R,8S)-8-ethyl-4-azaspiro[2.5]octane-6,7-diol and 20 μL of various concentrations of test compound in 10% DMSO in the same buffer. The final concentrations in the reaction were 0.083 mg/mL GBA2-cellular homogenate, 250 μM 4-methylumbelliferone-β-D glucopyranoside, and various concentrations of inhibitor. The inhibitor and GBA2-cellular homogenate were preincubated together for 5 min at 37° C. The reaction was initiated by addition of substrate and allowed to proceed for 20 min at 37° C. to assess GBA2 activity. Reactions were stopped by the addition of an equal volume (60 μL) of 0.5 M NaOH, 0.3 M glycine, pH 10.5. Fluorescence was measured on a Biotek Synergy H4 plate reader at wavelengths of 365 nm for excitation and 450 nm for emission. Incubations without added enzyme or added inhibitors were used to define no enzyme activity and maximal enzyme activity, respectively. IC50 values were determined by fitting the data to a log[inhibitor concentration] versus response curve using GraphPad Prism. IC50 values were calculated as the concentration of inhibitor required to inhibit GBA2 activity by 50%.

| SMILES | IC50 [nM] |
| --- | --- |
| C[C@@H]1[C@@H](O)[C@H](O)[C@@H](O)CN1CCc1ccccc1 [Example 35, (2R,3R,4R,5S)-2-methyl-1-phenethylpiperidine-3,4,5-triol] | 100 to 1000 |
| Cc1ccccc1CCN1C[C@H](O)[C@@H](O)[C@H](O)[C@H]1C [Example 36, (2R,3R,4R,5S)-2-methyl-1-(2-methylphenethyl)piperidine-3,4,5-triol] | 100 to 1000 |
| COc1ccccc1CCN1C[C@H](O)[C@@H](O)[C@H](O)[C@H]1C [Example 37, (2R,3R,4R,5S)-1-(2-methoxyphenethyl)-2-methylpiperidine-3,4,5-triol] | 100 to 1000 |
| C[C@@H]1[C@@H](O)[C@H](O)[C@@H](O)CN1CCc1ccccc1F [Example 38, (2R,3R,4R,5S)-1-(2-fluorophenethyl)-2-methylpiperidine-3,4,5-triol] | 100 to 1000 |
| C[C@@H]1[C@@H](O)[C@H](O)[C@@H](O)CN1CCc1ccccc1Cl [Example 39, (2R,3R,4R,5S)-1-(2-chlorophenethyl)-2-methylpiperidine-3,4,5-triol] | 100 to 1000 |
| C[C@@H]1[C@@H](O)[C@H](O)[C@@H](O)CN1CCc1cccc(F)c1F [Example 40, (2R,3R,4R,5S)-1-(2,3-difluorophenethyl)-2-methylpiperidine-3,4,5-triol] | 100 to 1000 |
| C[C@@H]1[C@@H](O)[C@H](O)[C@@H](O)CN1CCc1ccc(F)cc1F [Example 41, (2R,3R,4R,5S)-1-(2,4-difluorophenethyl)-2-methylpiperidine-3,4,5-triol] | 100 to 1000 |
| C[C@@H]1[C@@H](O)[C@H](O)[C@@H](O)CN1CCc1cc(F)ccc1F [Example 42, (2R,3R,4R,5S)-1-(2,5-difluorophenethyl)-2-methylpiperidine-3,4,5-triol] | < 100 |
| C[C@@H]1[C@@H](O)[C@H](O)[C@@H](O)CN1CCc1ccc(F)c(F)c1 [Example 43, (2R,3R,4R,5S)-1-(3,4-difluorophenethyl)-2-methylpiperidine-3,4,5-triol] | 100 to 1000 |
| COc1ccc(CCN2C[C@H](O)[C@@H](O)[C@H](O)[C@H]2C)c(F)c1 [Example 44, (2R,3R,4R,5S)-1-(2-fluoro-4-methoxyphenethyl)-2-methylpiperidine-3,4,5-triol] | 100 to 1000 |
| C[C@@H]1[C@@H](O)[C@H](O)[C@@H](O)CN1CCc1ccc(Cl)cc1F [Example 46, (2R,3R,4R,5S)-1-(4-chloro-2-fluorophenethyl)-2-methylpiperidine-3,4,5-triol] | 100 to 1000 |
| C[C@@H]1[C@@H](O)[C@H](O)[C@@H](O)CN1CCc1cc(Cl)ccc1F [Example 47, (2R,3R,4R,5S)-1-(5-chloro-2-fluorophenethyl)-2-methylpiperidine-3,4,5-triol] | < 100 |
| C[C@@H]1[C@@H](O)[C@H](O)[C@@H](O)CN1CCc1c(F)cccc1F [Example 48, (2R,3R,4R,5S)-1-(2,6-difluorophenethyl)-2-methylpiperidine-3,4,5-triol] | < 100 |
| C=C(C)c1cc(F)c(CCN2C[C@H](O)[C@@H](O)[C@H](O)[C@H]2C)c(F)c1 [Example 50, (2R,3R,4R,5S)-1-(2,6-difluoro-4-(prop-1-en-2-yl)phenethyl)-2-methylpiperidine-3,4,5-triol] | < 100 |
| C[C@@H]1[C@@H](O)[C@H](O)[C@@H](O)CN1CCc1ccc(OC2CCCOC2)cc1 (stereo partly drawn) [Example 62, (2R,3R,4R,5S)-2-methyl-1-(4-((tetrahydro-2H-pyran-3-yl)oxy)phenethyl)piperidine-3,4,5-triol] | < 100 |
| C[C@@H]1[C@@H](O)[C@H](O)[C@@H](O)CN1CCc1ccc(OC2CCOCC2)cc1 [Example 63, (2R,3R,4R,5S)-2-methyl-1-(4-((tetrahydro-2H-pyran-4-yl)oxy)phenethyl)piperidine-3,4,5-triol] | < 100 |
| C[C@@H]1[C@@H](O)[C@H](O)[C@@H](O)CN1CCc1ccc(OCC2CCOC2)cc1 (stereo partly drawn) [Example 65, (2R,3R,4R,5S)-2-methyl-1-(4-((tetrahydrofuran-3-yl)methoxy)phenethyl)piperidine-3,4,5-triol] | < 100 |
| C[C@@H]1[C@@H](O)[C@H](O)[C@@H](O)CN1CCc1ccc2c(c1)OC(F)(F)O2 [Example 72, (2R,3R,4R,5S)-1-(2-(2,2-difluorobenzo[d][1,3]dioxol-5-yl)ethyl)-2-methylpiperidine-3,4,5-triol] | < 100 |
| C[C@@H]1[C@@H](O)[C@H](O)[C@@H](O)CN1CCc1cccs1 [Example 74, (2R,3R,4R,5S)-2-methyl-1-(2-(thiophen-2-yl)ethyl)piperidine-3,4,5-triol] | 100 to 1000 |
| C[C@@H]1[C@@H](O)[C@H](O)[C@@H](O)CN1CCc1ccsc1 [Example 75, (2R,3R,4R,5S)-2-methyl-1-(2-(thiophen-3-yl)ethyl)piperidine-3,4,5-triol] | 100 to 1000 |

Same assay, conditions: cellular homogenate of HEK293T cells overexpressing human GBA2, 250 μM 4-methylumbelliferone-β-D glucopyranoside, pH 5.5, 37° C., GCase inhibitor present; read-out: GBA2 IC50

| SMILES | IC50 [nM] |
| --- | --- |
| C[C@@H]1[C@@H](O)[C@H](O)[C@@H](O)CN1CCCC1CCCCC1 [Example 34, (2R,3R,4R,5S)-1-(3-cyclohexylpropyl)-2-methylpiperidine-3,4,5-triol] | < 100 |
| C[C@@H]1[C@@H](O)[C@H](O)[C@@H](O)CN1CCc1ccc(OC2CCOC2)cc1 (stereo partly drawn) [Example 61, (2R,3R,4R,5S)-2-methyl-1-(4-((tetrahydrofuran-3-yl)oxy)phenethyl)piperidine-3,4,5-triol] | < 100 |
| C[C@@H]1[C@@H](O)[C@H](O)[C@@H](O)CN1CCc1ccc(Oc2ccccc2)cc1 [Example 64, (2R,3R,4R,5S)-2-methyl-1-(4-phenoxyphenethyl)piperidine-3,4,5-triol] | < 100 |
| C[C@@H]1[C@@H](O)[C@H](O)[C@@H](O)CN1C[C@H](C)c1ccccc1 [Example 66, (2R,3R,4R,5S)-2-methyl-1-((R)-2-phenylpropyl)piperidine-3,4,5-triol] | 100 to 1000 |
| C[C@H](CN1C[C@H](O)[C@@H](O)[C@H](O)[C@H]1C)c1ccccc1 [Example 67, (2R,3R,4R,5S)-2-methyl-1-((S)-2-phenylpropyl)piperidine-3,4,5-triol] | 100 to 1000 |
| C[C@@H]1[C@@H](O)[C@H](O)[C@@H](O)CN1CCc1ccc(-c2ccccc2)cc1 [Example 68, (2R,3R,4R,5S)-1-(2-([1,1′-biphenyl]-4-yl)ethyl)-2-methylpiperidine-3,4,5-triol] | < 100 |
| C[C@@H]1[C@@H](O)[C@H](O)[C@@H](O)CN1CCc1c(F)cc(-c2ccccc2)cc1F [Example 69, (2R,3R,4R,5S)-1-(2-(3,5-difluoro-[1,1′-biphenyl]-4-yl)ethyl)-2-methylpiperidine-3,4,5-triol] | < 100 |
| C[C@@H]1[C@@H](O)[C@H](O)[C@@H](O)CN1CCc1ccccn1 [Example 76, (2R,3R,4R,5S)-2-methyl-1-(2-(pyridin-2-yl)ethyl)piperidine-3,4,5-triol] | 1000 to 25000 |
